We go through 18 compounds from patent US11773078B2, “Furin inhibitors” (Glaxosmithkline Intellectual Property Development Limited, priority 2018, dated 2023).

SMILES strings stand for the structures. Counter-ions that a name gives are not always drawn. Bounds are passed on as bounds.

Experiment [1] addresses T1, furin (endogenous protease) in U20S cells (Homo sapiens, UniProt P09958).
T1 construct: the endogenous protease cleaves GFP; endogenous in cells; host or cells: U2OS cells transduced with a BacMam reporter
In words: Furin cell-based assay (image-based, Golgi-targeted GFP with BMP10 furin/PCSK cleavage site).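 Note: Read-out is mean GFP fluorescence of Golgi puncta per cell by high-content imaging, retained when furin inhibited, over an eleven-point 0.00017–10 µM series, four-parameter fit.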 The conditions noted are these: 24-hour incubation, read-out: furin golgi cell pXC50 (converted).
Description: This assay uses an image-based platform to evaluate the intracellular activity of compounds of the invention. Reactions were performed in black 384-well, tissue culture-treated, clear bottom plates (Greiner). Compounds under analysis were dissolved in DMSO (1.0 mM) and serially diluted 1 to 3 with DMSO through eleven dilutions. This creates a final compound concentration range from 0.00017 to 10 μM, and 0.1 μL of each concentration was transferred to the corresponding well of the assay plate. Assays were initiated by the addition of U20S cells simultaneously transduced with a BacMam-delivered construct containing a Golgi-targeting sequence followed by a 12-amino acid furin/PCSK cleavage site from Bone Morphogenic Protein 10 (BMP10) and then GFP at the C terminus. […] Briefly, frozen cells are thawed in assay media (Dulbecco's Modified Eagles Medium Nutritional Mixture F-12 (Ham) without phenol red containing 5% FBS) and diluted to deliver 6000 cells/well (50 μL) to the plate using a Multidrop Combi (Thermo).
After a 24-hour incubation period at 37° C., the cells are stained with Cell Mask Deep Red, fixed in paraformaldehyde and the nuclei stained using Ho33342. The Golgi-targeted GFP forms bright punctate clusters within the cell. In the absence of a furin inhibitor, the endogenous protease cleaves GFP from its N-acetylgalactosaminyltransferase-2 Golgi tether, releasing GFP into the Golgi lumen where fluorescence is diluted below the threshold of assay sensitivity. […] Cellular GFP intensity is determined by image-based acquisition (Incell 2200, Perkin Elmer) at 40× magnification with 4 fields measured per well. Multi-scale tophat segmentation is used to identify the GFP-tagged puncta and to quantitate the average fluorescence of all puncta on a per cell basis. Cellular toxicity is determined in parallel.
Data were analyzed using AbaseXE 7.3, utilizing a four-parameter curve fit equation. The following values were used to define limits and/or constraints for each of the four parameters: • Minimum—limit −10 to 10 • Maximum—90 to 110 • Slope—limit 0.5 to 2.0 • pXC50 confidence interval—10
Raw counts obtained from the respective plate reader (Perkin Elmer) were captured for data analysis. Curves were generated using the equation: Y=A+[(B−A)/(1+(10^C/x)^D)] • where: A=minimum response • B=maximum response • C=log 10*XC50 • D=slope factor • x=log 10 compound concentration [M]
The results were recorded as pXC50 values (−C in the above equation)

The target of experiment [2] is T2, Furin (108-574-Tev-Flag-His) enzyme (Homo sapiens, UniProt P09958).
T2 construct: Furin (108-574-Tev-Flag-His) enzyme was expressed and purified from CHO cells; TEV cleavage site (C); FLAG (C); His (C); made in house; host or cells: CHO cells
T2 sequence (P09958 108-574): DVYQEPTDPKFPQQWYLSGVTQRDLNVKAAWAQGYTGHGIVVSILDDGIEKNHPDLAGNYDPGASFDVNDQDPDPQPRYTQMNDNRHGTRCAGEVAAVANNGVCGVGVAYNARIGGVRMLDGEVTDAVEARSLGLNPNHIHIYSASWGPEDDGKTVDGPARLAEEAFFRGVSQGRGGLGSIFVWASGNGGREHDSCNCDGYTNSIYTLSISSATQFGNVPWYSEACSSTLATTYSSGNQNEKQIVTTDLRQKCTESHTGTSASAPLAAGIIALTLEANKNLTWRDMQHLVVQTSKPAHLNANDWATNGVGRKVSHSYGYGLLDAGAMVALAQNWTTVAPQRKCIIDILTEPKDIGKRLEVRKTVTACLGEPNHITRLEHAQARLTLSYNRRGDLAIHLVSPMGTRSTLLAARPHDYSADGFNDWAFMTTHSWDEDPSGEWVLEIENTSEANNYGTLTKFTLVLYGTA
In words: Furin enzyme assay. The conditions noted are these: for IC50: read-out: furin enzyme pIC50 (converted). The experiment is classed as biochemical. The essentials: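 Compounds ran as 11-point threefold dilutions (0.00017–10 μM final) against 40 pM furin, purified from CHO cells, for 2 h at room temperature. Buffer: 100 mM HEPES pH7.5 with 1 mM CaCl2 and 0.005% Triton X-100. Envision readout. Four-parameter curve gives pXC50.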

T1 sequence (P09958 108-794): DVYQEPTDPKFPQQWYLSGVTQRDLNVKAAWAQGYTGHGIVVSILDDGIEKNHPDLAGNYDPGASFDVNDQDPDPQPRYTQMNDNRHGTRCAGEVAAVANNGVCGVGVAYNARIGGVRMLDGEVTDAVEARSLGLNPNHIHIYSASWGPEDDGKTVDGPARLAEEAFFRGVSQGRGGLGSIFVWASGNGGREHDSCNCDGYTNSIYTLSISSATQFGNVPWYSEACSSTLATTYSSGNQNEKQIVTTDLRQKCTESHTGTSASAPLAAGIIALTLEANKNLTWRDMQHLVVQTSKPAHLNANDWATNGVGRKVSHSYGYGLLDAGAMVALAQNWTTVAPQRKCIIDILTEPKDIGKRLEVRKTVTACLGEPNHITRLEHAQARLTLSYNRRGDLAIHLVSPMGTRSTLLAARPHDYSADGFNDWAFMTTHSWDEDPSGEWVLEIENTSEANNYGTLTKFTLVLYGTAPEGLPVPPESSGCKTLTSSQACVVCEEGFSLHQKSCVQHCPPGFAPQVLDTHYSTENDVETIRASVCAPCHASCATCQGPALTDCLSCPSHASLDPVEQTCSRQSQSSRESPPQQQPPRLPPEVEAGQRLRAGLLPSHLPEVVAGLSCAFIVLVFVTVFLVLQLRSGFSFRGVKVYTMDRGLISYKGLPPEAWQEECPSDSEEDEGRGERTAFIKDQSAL

On to `CNCc1cc(Oc2ccc(NCCCN)nc2)cc(-c2cc(Cl)cc(Cl)c2)c1` [Example 101, N^1-(5-((3′,5′-Dichloro-5-((methylamino)methyl)-[1,1′-biphenyl]-3-yl)oxy)pyridin-2-yl)propane-1,3-diamine], for which the EC50 in experiment [1] is 3160 nM. The “furin enzyme pIC50” value in experiment [2] worked out at 8.6.

In the case of `CNCc1cc(Oc2ccc(N3CCNC(C)(C)C3)nc2)cc(-c2cc(Cl)cc(Cl)c2)c1` [Example 102, 1-(3′,5′-Dichloro-5-((6-(3,3-dimethylpiperazin-1-yl)pyridin-3-yl)oxy)-[1,1′-biphenyl]-3-yl)-N-methylmethanamine, 3 hydrochloride], in experiment [1], the EC50 is 15.8 nM. The “furin enzyme pIC50” value in experiment [2] turned out to be 9.2.

Take `CNCc1cc(Oc2ccc(N3CCCNCC3)nc2)cc(-c2cc(Cl)cc(Cl)c2)c1` [Example 103]: the EC50 in experiment [1] is 63.1 nM. Further, in experiment [2], the “furin enzyme pIC50” value came out at 8.9.

As to `CNCc1cc(Oc2ccc(N3CCN(C)CC3)nc2)cc(-c2cc(Cl)cc(Cl)c2)c1` [Example 104, 1-(3′,5′-dichloro-5-((6-(4-methylpiperazin-1-yl)pyridin-3-yl)oxy)-[1,1′-biphenyl]-3-yl)-N-methylmethanamine], in experiment [1], the EC50 was 25.1 nM. Further, the “furin enzyme pIC50” value in experiment [2] worked out at 8.5.

`CC(=O)NCC1CCN(Cc2cc(Oc3ccc(NCC(C)(C)N)nc3)cc(-c3cc(Cl)cc(Cl)c3)c2)CC1` [Example 105, N-((1-((5-((6-((2-Amino-2-methylpropyl)amino)pyridin-3-yl)oxy)-3′,5′-dichloro-[1,1′-biphenyl]-3-yl)methyl)piperidin-4-yl)methyl)acetamide, 3 hydrochloride]: the EC50 in experiment [1] is 126 nM. In addition, the “furin enzyme pIC50” value in experiment [2] was 9.

In the case of `CC(=O)NCC1CCN(Cc2cc(Oc3ccc(N4CC[C@@H](N)[C@@H](F)C4)nc3)cc(-c3cc(Cl)cc(Cl)c3)c2)CC1` [Example 106, N-((1-((5-((6-((r/3)-4-Amino-3-fluoropiperidin-1-yl)pyridin-3-yl)oxy)-3′,5′-dichloro-[1,1′-biphenyl]-3-yl)methyl)piperidin-4-yl)methyl)acetamide, 3 hydrochloride], the EC50 in experiment [1] was 3.16 nM. Further, the “furin enzyme pIC50” value in experiment [2] was 9.4.

For the compound `CC(=O)NCC1CCN(Cc2cc(Oc3ccc(N4CCN5C(=O)NCC5C4)nc3)cc(-c3cc(Cl)cc(Cl)c3)c2)CC1` (stereo not drawn) [Example 107, N-((1-((3′,5′-Dichloro-5-((6-(3-oxohexahydroimidazo[1,5-a]pyrazin-7(1H)-yl)pyridin-3-yl)oxy)-[1,1′-biphenyl]-3-yl)methyl)piperidin-4-yl)methyl)acetamide, 2 hydrochloride], in experiment [1], the EC50 is 5.01 nM. The “furin enzyme pIC50” value in experiment [2] is recorded as 9.

For the compound `CNCc1cc(Oc2ccc(N3CCC(N)CC3)nc2)nc(-c2cc(C)cc(Cl)c2)c1` [Example 108, 1-(5-((6-(3-Chloro-5-methylphenyl)-4-((methylamino)methyl)pyridin-2-yl)oxy)pyridin-2-yl)piperidin-4-amine, 4 hydrochloride], the EC50 in experiment [1] was more than 50100 nM. In experiment [2], the “furin enzyme pIC50” value is recorded as 7.5.

Take `CC(=O)NCC1CCN(Cc2cc(Oc3cnc(N4CCNCC4)cn3)nc(-c3cc(Cl)cc(Cl)c3)c2)CC1` [Example 109, N-((1-((2-(3,5-Dichlorophenyl)-6-((5-(piperazin-1-yl)pyrazin-2-yl)oxy)pyridin-4-yl)methyl)piperidin-4-yl)methyl)acetamide]: in experiment [1], the EC50 was 15.8 nM. Also, the “furin enzyme pIC50” value in experiment [2] is on record as 9.6.

On to `CC(=O)NCC1CCN(Cc2cc(Oc3cnc(N4CCN(C)CC4)cn3)nc(-c3cc(Cl)cc(Cl)c3)c2)CC1` [Example 110, N-((1-((2-(3,5-Dichlorophenyl)-6-((5-(4-methylpiperazin-1-yl)pyrazin-2-yl)oxy)pyridin-4-yl)methyl)piperidin-4-yl)methyl)acetamide], for which, in experiment [1], the EC50 was 2.51 nM. Also, the “furin enzyme pIC50” value in experiment [2] is recorded as 10.3.

Consider `CC(=O)NCC1CCN(Cc2cc(Oc3cnc(N4CCN(CCC(=O)O)CC4)cn3)nc(-c3cc(Cl)cc(Cl)c3)c2)CC1` [Example 111, 3-(4-(5-((4-((4-(Acetamidomethyl)piperidin-1-yl)methyl)-6-(3,5-dichlorophenyl)pyridin-2-yl)oxy)pyrazin-2-yl)piperazin-1-yl)propanoic acid], for which the EC50 in experiment [1] is 158 nM. Further, the “furin enzyme pIC50” value in experiment [2] is listed as 9.7.

Regarding `O=C(O)CC1CCN(Cc2cc(Oc3cnc(N4CCNCC4)cn3)nc(-c3cc(Cl)cc(Cl)c3)c2)CC1` [Example 112, 2-(1-((2-(3,5-Dichlorophenyl)-6-((5-(piperazin-1-yl)pyrazin-2-yl)oxy)pyridin-4-yl)methyl)piperidin-4-yl)acetic acid], the EC50 in experiment [1] is 126 nM. Also, the “furin enzyme pIC50” value in experiment [2] was determined as 8.9.

`CC(=O)NCC1CCN(Cc2cc(Oc3cnc(N4CCN(CCCO)CC4)nc3)cc(-c3cc(Cl)cc(Cl)c3)c2)CC1` [Example 113, N-((1-((3′,5′-Dichloro-5-((2-(4-(3-hydroxypropyl)piperazin-1-yl)pyrimidin-5-yl)oxy)-[1,1′-biphenyl]-3-yl)methyl)piperidin-4-yl)methyl)acetamide]: in experiment [1], the EC50 is 12.6 nM. For the same compound, in experiment [2], the IC50 was less than 0.158 nM.

With `O=C(O)CCC1CCN(Cc2cc(Oc3cnc(N4CCN(CCO)CC4)nc3)cc(-c3cc(Cl)cc(Cl)c3)c2)CC1` [Example 114, 3-(1-((3′,5′-Dichloro-5-((2-(4-(2-hydroxyethyl)piperazin-1-yl)pyrimidin-5-yl)oxy)-[1,1′-biphenyl]-3-yl)methyl)piperidin-4-yl)propanoic acid], the EC50 in experiment [1] is 20 nM. In experiment [2], the IC50 was less than 0.158 nM.

For the compound `CC(=O)NCC1CCN(Cc2cc(Oc3ccc(N4CCN(CCC(=O)O)CC4)nc3)nc(-c3cc(F)cc(Cl)c3)c2)CC1` [Example 115, 3-(4-(5-((4-((4-(Acetamidomethyl)piperidin-1-yl)methyl)-6-(3-chloro-5-fluorophenyl)pyridin-2-yl)oxy)pyridin-2-yl)piperazin-1-yl)propanoic acid], the EC50 in experiment [1] was 251 nM. In experiment [2], the “furin enzyme pIC50” value came out at 8.3.

For the compound `CC(=O)NCC1CCN(Cc2cc(Oc3ccc(N4CCN(CCC(=O)O)CC4)nc3)nc(-c3cc(F)cc(Br)c3)c2)CC1` [Example 116, 3-(4-(5-((4-((4-(Acetamidomethyl)piperidin-1-yl)methyl)-6-(3-bromo-5-fluorophenyl)pyridin-2-yl)oxy)pyridin-2-yl)piperazin-1-yl)propanoic acid], the EC50 in experiment [1] is 200 nM. The “furin enzyme pIC50” value in experiment [2] is 10.4.

Regarding `CN1CCN(c2ncc(Oc3cc(CN4CCC(CC(=O)O)CC4)cc(-c4cc(Cl)cc(Cl)c4)c3)cn2)CC1` [Example 117, 2-(1-((3′,5′-Dichloro-5-((2-(4-methylpiperazin-1-yl)pyrimidin-5-yl)oxy)-[1,1′-biphenyl]-3-yl)methyl)piperidin-4-yl)acetic acid], the EC50 in experiment [1] is 31.6 nM. Also, the “furin enzyme pIC50” value in experiment [2] is 9.2.

With `CC(=O)NCC1CCN(Cc2cc(Oc3cnc(N4CCCNCC4)nc3)nc(-c3cc(Cl)cc(Cl)c3)c2)CC1` [Example 118, N-((1-((2-((2-(1,4-Diazepan-1-yl)pyrimidin-5-yl)oxy)-6-(3,5-dichlorophenyl)pyridin-4-yl)methyl)piperidin-4-yl)methyl)acetamide], the EC50 in experiment [1] was 15.8 nM. Further, the “furin enzyme pIC50” value in experiment [2] is 8.7.
